“And” between values parts separate entries of the source, which are not always exact repeats. Equal entries are not always repeated.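 Each compound was tested at five concentrations against cells in 96-well plates for 48 hours. Here, GI50 denotes the concentration required for 50% inhibition of growth. TGI is the concentration that stops growth completely.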
How the values were obtained:
Assay in all cases: inhibition of tumour cell growth, NCI panel, 48 h
MDA-MB-435 = test system: MDA-MB-435
NCI/ADR-RES ovarian = test system: NCI/ADR-RES ovarian
KM12 colon = test system: KM12 colon
UACC-62 melanoma = test system: UACC-62 melanoma
CAKI-1 renal = test system: CAKI-1 renal
HOP-62 NSCLC = test system: HOP-62 NSCLC
786-0 renal = test system: 786-0 renal
OVCAR-4 ovarian = test system: OVCAR-4 ovarian
A549 NSCLC = test system: A549 NSCLC
SF-295 CNS = test system: SF-295 CNS

Row | SMILES | GI50 (MDA-MB-435) | TGI (MDA-MB-435) | GI50 (NCI/ADR-RES ovarian) | TGI (NCI/ADR-RES ovarian) | GI50 (KM12 colon) | TGI (KM12 colon) | GI50 (UACC-62 melanoma) | TGI (UACC-62 melanoma) | GI50 (CAKI-1 renal) | TGI (CAKI-1 renal) | GI50 (HOP-62 NSCLC) | TGI (HOP-62 NSCLC) | GI50 (786-0 renal) | TGI (786-0 renal) | GI50 (OVCAR-4 ovarian) | TGI (OVCAR-4 ovarian) | GI50 (A549 NSCLC) | TGI (A549 NSCLC) | GI50 (SF-295 CNS) | TGI (SF-295 CNS)
1 | Cc1ccc(-c2nc([P+](c3ccccc3)(c3ccccc3)c3ccccc3)c(S(=O)(=O)c3ccc(C)cc3)o2)cc1 | 1.56 µM | 3.04 µM | 2.94 µM | 18 µM | 1.75 µM | 3.83 µM | 1.53 µM | 2.89 µM | 1.36 µM | 2.71 µM | 1.47 µM | 4.56 µM | 1.46 µM | 2.85 µM | 1.4 µM | 2.83 µM | 2 µM | 5.14 µM | 2.91 µM | 10.7 µM
2 | Cc1cc(C#Cc2ccc(C(C)(C)C)cc2)ccc1-n1c(/C=C/c2ccc(O)cc2O)nc2ccccc2c1=O | 3.08 µM | 12.3 µM | 3.17 µM | 13.4 µM | 3.33 µM | 10.8 µM | 3.52 µM | 13.5 µM | 2.87 µM | 16.2 µM | 5.88 µM | 20.5 µM | 5.08 µM | 17.9 µM | 3.15 µM | 14.7 µM | 2.83 µM | 11.1 µM | 3.83 µM | 16.5 µM
3 | O=C(O)Cc1cccnc1 | – | > 100 µM | – | > 100 µM | – | > 100 µM | – | > 100 µM | – | > 100 µM | – | > 100 µM | – | > 100 µM | – | > 100 µM | – | > 100 µM | – | > 100 µM
4 | Cc1cccc2c3c(sc12)C(c1ccc(Cl)cc1)C(C#N)=C(N)O3 (centres undefined) | 0.182 µM | 0.42 µM | 0.302 µM | 2.46 µM | 0.428 µM | 10.7 µM | 0.327 µM | 11.3 µM | 0.295 µM | 14.5 µM | 0.515 µM | 13.8 µM | 0.643 µM | 13.3 µM | 2.08 µM | 18.5 µM | 0.486 µM | 9.66 µM | 0.26 µM | 0.992 µM
5 | O=C(O)CCC(=O)c1ccc2sc3ccccc3c2c1 | – | > 100 µM | – | > 100 µM | – | > 100 µM | – | > 100 µM | – | > 100 µM | – | > 100 µM | – | > 100 µM | – | > 100 µM | – | > 100 µM | – | > 100 µM
6 | Cc1cc(C)nc(SC2=C(Nc3cc(Cl)ccc3O)C(=O)N(Cc3ccccc3)C2=O)n1 | 62.2 µM | > 160 µM | > 160 µM | > 160 µM | 27.4 µM | 73.8 µM | 16.2 µM | 41.8 µM | > 160 µM | > 160 µM | 27.6 µM | 101 µM | 14.7 µM | 85.2 µM | 34 µM | > 160 µM | 30.7 µM | > 160 µM | 36.8 µM | > 160 µM
7 | O=C1OC(C(O)CO)C(O)=C1O (centres undefined) | 203 µM and 208 µM | 372 µM and 374 µM | 2450 µM | 5930 µM and > 6010 µM | 1790 µM and > 3990 µM | 3270 µM and > 5430 µM | 1670 µM and 2050 µM | 3050 µM and > 5130 µM | 1880 µM and 2150 µM | 3350 µM and 4620 µM | 2420 µM and 2940 µM | 4800 µM and 6210 µM | 1790 µM and > 4300 µM | 3290 µM and > 5710 µM | 1840 µM and 1970 µM | 3520 µM and 3940 µM | 2510 µM and > 4270 µM | 6010 µM and > 6460 µM | 6830 µM and > 4590 µM | > 10000 µM
8 | CCC1(O)C(=O)OCc2c1cc1n(c2=O)Cc2cc3c(NC(=O)CN)cccc3nc2-1 (centres undefined) | 5.4 µM | > 70 µM | 0.296 µM | 1.51 µM | 1.87 µM | 44.7 µM | 0.0927 µM | 0.852 µM | 0.205 µM | 8.37 µM | 0.0847 µM | 0.622 µM | 0.194 µM | 2.48 µM | 7.53 µM | 36.7 µM | 1.2 µM | > 67.7 µM | 0.368 µM | 28 µM
9 | COC(=O)c1cc2c(cc1Cl)SC1=NN(C)C(N(C)C)N1S2(=O)=O (centres undefined) | > 100 µM | > 100 µM | > 100 µM | > 100 µM | > 100 µM | > 100 µM | > 100 µM | > 100 µM | > 100 µM | > 100 µM | > 100 µM | > 100 µM | > 100 µM | > 100 µM | > 100 µM | > 100 µM | > 100 µM | > 100 µM | > 100 µM | > 100 µM
10 | C=CCN1CC(=O)N2[C@@H](Cc3ccc(O)cc3F)C(=O)N(Cc3cccc(N4CC(N5CCN(CC)CC5)C4)n3)C[C@@H]2N1C(=O)NCc1ccccc1 | 0.102 µM | > 100 µM | 2.19 µM | 32.8 µM | 0.111 µM | > 100 µM | 0.0539 µM | 10.5 µM | 0.0507 µM | 0.504 µM | 0.0562 µM | > 100 µM | 0.173 µM | > 100 µM | 0.0329 µM | > 100 µM | 0.0412 µM | > 100 µM | 0.0965 µM | 1.02 µM
11 | COC(=O)CCCCC(=O)c1c(C)[nH]c(/C=C2\N=C(c3ccc[nH]3)C=C2OC)c1C | 0.328 µM | 1.22 µM | 0.504 µM | 1.91 µM | 0.54 µM | 1.96 µM | 1.25 µM | 2.69 µM | 1.03 µM | 2.49 µM | 0.475 µM | 1.87 µM | 0.437 µM | 1.61 µM | 1.14 µM | 2.47 µM | 1.25 µM | 3.28 µM | 1.52 µM | 3.05 µM
12 | OCCNC1c2cc(Cl)ccc2-c2c(Cl)cc(Cl)cc21 (centres undefined) | – | > 100 µM | – | > 100 µM | – | > 100 µM | – | > 100 µM | – | > 100 µM | – | > 100 µM | – | > 100 µM | – | > 100 µM | – | > 100 µM | – | > 100 µM
13 | C[N+](C)(C)CC1CCCC1=O (centres undefined) | – | 3.22 µM | – | 4.05 µM | – | 20.6 µM | – | 5.67 µM | – | 6.61 µM | – | > 68 µM | – | 5.32 µM | – | 1.8 µM | – | 35.7 µM | – | 36.4 µM
14 | COC(=O)c1cncc(/C=C/c2c(C)cc(O)cc2C)c1 | 3.42 µM | 11.7 µM | 7.3 µM | > 25 µM | 7.76 µM | 24.6 µM | 7.71 µM | > 25 µM | > 16.2 µM | > 25 µM | 9.82 µM | > 20.5 µM | 9.42 µM | > 25 µM | 8.11 µM | > 25 µM | > 17.5 µM | > 25 µM | > 19.1 µM | > 25 µM
15 | Oc1ccc(C(c2ccc(O)cc2)c2ccc(Br)cn2)cc1 | 20 µM | 65.9 µM | 0.229 µM | 0.55 µM | 0.454 µM | 18.9 µM | 3.71 µM | 15.5 µM | 20.1 µM | > 100 µM | 6.12 µM | > 62 µM | 21.5 µM | > 79.7 µM | 0.101 µM | 0.525 µM | 1.95 µM | 60 µM | 0.331 µM | 1.63 µM
16 | O=[N+]([O-])c1ccc(N2CCOCC2)c2c1no[n+]2[O-] | 2.15 µM | 7.35 µM | 1.54 µM | 12.3 µM | 1.14 µM | 2.48 µM | 1.21 µM | 3.87 µM | 0.443 µM | 1.89 µM | 1.61 µM | 6.58 µM | 2.12 µM | 6 µM | 1.38 µM | 3.99 µM | 1.9 µM | 6.28 µM | 1.08 µM | 4.67 µM
17 | O=C(/C=C/c1cccc(O)c1)c1cccc(-n2cc(-c3ccccc3)[nH]c2=O)c1 | 2.53 µM | 9.64 µM | 3.94 µM | 15.3 µM | 1.78 µM | 3.46 µM | 2.82 µM | 9.54 µM | 4.95 µM | 10.5 µM | 4.27 µM | > 25.9 µM | 2.36 µM | – | 4.15 µM | > 37 µM | 6.39 µM | 21.8 µM | 5.77 µM | 11.8 µM
18 | CC(C)(O)CNc1nc(Nc2ccnc(C(F)(F)F)c2)nc(-c2cccc(C(F)(F)F)n2)n1 | 15.8 µM | 39.9 µM | 17.1 µM | 53.8 µM | 16.4 µM | 43.7 µM | 16.4 µM | 32.6 µM | 29.6 µM | > 100 µM | 21.4 µM | 52.8 µM | 18.6 µM | 78.5 µM | 23.9 µM | 86.9 µM | 19.5 µM | 39.4 µM | 17.1 µM | 35.3 µM

From PubChem BioAssay (NCI)
